Experimental data: patent publication US12109207B2, “Methods of using 4(1H)-quinolone derivatives” (Academia Sinica, priority 2019, dated 2024)
Where two headings read alike, the source gives them in different places.

Columns and labels:
[1] = test system: H1975 cells; assay: Cell cytotoxicity assay (MTS), H1975; assay type: cell-based, human; conditions: Homo sapiens, read-out: IC50
Description: (§1) Cells were seeded into the wells of 96-well plates (2000 cells/well). After an overnight culture, the cells were treated with different concentrations of a compound for 72 h. The CellTiter 96 AQueous one-solution cell proliferation assay (MTS) reagent was used to determine cytotoxicity. After treatment with a compound, 20 μL of the MTS reagent was added to each well and the plates were incubated at 37° C. for 1-4 h. Next, the absorbance at 490 nm of the culture medium in each well was determined using a VersaMax microplate reader (Molecular Devices).

[2] = test system: BT-549; assay: Cell cytotoxicity assay (MTS), BT-549; assay type: cell-based; conditions: Homo sapiens, BT-549, 72 h
Description: as §1

[3] = test system: Hs578t; assay: Cell cytotoxicity assay (MTS), Hs578t; assay type: cell-based; conditions: Homo sapiens, Hs-578T, 72 h
Description: as §1

[4] = test system: MDA-MB-231; assay: Cell cytotoxicity assay (MTS), MDA-MB-231; assay type: cell-based; conditions: Homo sapiens, MDA-MB-231, 72 h
Description: as §1

[5] = test system: 37T; assay: Cell cytotoxicity assay (MTS), 37T; assay type: cell-based; conditions: Homo sapiens, 72 h
Description: as §1

[6] = test system: 82T; assay: Cell cytotoxicity assay (MTS), 82T; assay type: cell-based; conditions: Homo sapiens, 72 h
Description: as §1

[7] = test system: KB; assay: Cell cytotoxicity assay (MTS), KB; assay type: cell-based; conditions: Homo sapiens
Description: as §1

[8] = test system: CCRF-CEM; assay: Cell cytotoxicity assay (MTS), CCRF-CEM; assay type: cell-based; conditions: Homo sapiens
Description: as §1

[9] = test system: human fibroblast (HFB) cells; assay: Cell cytotoxicity assay (MTS), human fibroblast; assay type: cell-based; conditions: normal cell line HFB
Description: as §1

[10] = test system: KBtax; assay: Cell cytotoxicity assay (MTS), KBtax; assay type: cell-based, human; conditions: for IC50: Homo sapiens, KBtax, P-gp overexpressing, paclitaxel-selected KB subline
Description: as §1

[11] = test system: KBvin; assay: Cell cytotoxicity assay (MTS), KBvin; assay type: cell-based, human; conditions: for IC50: Homo sapiens, KBvin, P-gp overexpressing, vincristine-selected KB subline; for RF, resistance factor (IC50 in resistant cell line/IC50 in parent cell line): KBvin vs KB
Description: as §1

[12] = test system: CEM/VBL; assay: Cell cytotoxicity assay (MTS), CEM/VBL; assay type: cell-based, human; conditions: for RF, resistance factor (IC50 in resistant cell line/IC50 in parent cell line): CEM/VBL vs CCRF-CEM; for IC50: Homo sapiens, CEM/VBL, P-gp overexpressing, vinblastine-selected CCRF-CEM subline
Description: as §1

[13] = test system: HDQP1; assay: Cell cytotoxicity assay, HDQP1; assay type: cell-based; conditions: Homo sapiens, HDQ-P1; TNBC cell line HDQP1
Description: as §1

[14] = test system: HDQP1/TAX; assay: Cell cytotoxicity assay, HDQP1/TAX; assay type: cell-based, human
Description: as §1

[15] = test system: TNBC cell lines; assay: Cytotoxicity against triple-negative breast cancer cell lines; assay type: cell-based; conditions: Homo sapiens; BT-549, Hs578t, MDA-MB-231, 37T, 82T; 72 h MTS; read-out: IC50 values in different TNBC cell lines
Description: as §1

[16] = test system: H1975 xenograft tumor; assay: H1975 xenograft tumor model; assay type: in vivo, BALB/c nude mice; conditions: day 21
Description: (§2) Using the H1975, MDA-MB-231, and KBtax xenograft models, tumors were established after inoculation into the right flanks of 6-week-old BALB/c nude mice (NARLabs, Taipei, Taiwan). After establishment of the tumors, vehicle and test compounds, which had been dissolved in DMSO, were each injected intraperitoneally into a separate group of animals three times per week. The body mass of each animal and tumor volumes were measured before each drug delivery. Tumor volume was calculated as 0.5W^2L (with W being the width of the smaller diameter and L being the length of the larger diameter). The animal experiment was carried out in accordance with the procedures and guidelines of the Institutional Animal Care and Use Committee, Institute of Biomedical Sciences, Academia Sinica.

[17] = test system: MDA-MB-231 xenograft tumors; assay: MDA-MB-231 xenograft tumor model; assay type: in vivo, BALB/c nude mice; conditions: day 35
Description: as §2

[18] = test system: KBtax xenograft tumors; assay: KBtax xenograft tumor model; assay type: in vivo, BALB/c nude mice
Description: as §2

[19] = biological target: T1, Purified porcine tubulin (Sus scrofa, UniProt P02554); assay: In vitro tubulin polymerization assay; assay type: biochemical; conditions: 5 μM, A340 every min for 1 h at 37° C.
T1 construct: purchased Cytoskeleton
Description: Reagents from a Tubulin Polymerization Assay kit (Cytoskeleton) were used according to the manufacturer's instructions. Purified porcine tubulin (4 mg/mL; >99% purity) in G-PEM buffer (80 mM PIPES, 2 mM MgCl2, 0.5 mM EGTA, 1 mM GTP, 15% glycerol, pH 6.9) was mixed with each test compound in the wells of a 96-well plate. Then, the A340 value was recorded each minute for 1 h at 37° C. with the VersaMax microplate reader.

[20] = biological target: T2, P-gp (Homo sapiens, UniProt P08183); assay: Rhodamine efflux assay; assay type: cell-based; conditions: KBtax cells
T2 construct: KBtax, KBvin, and CEM/VBL cancer cell lines, which overexpress P-gp; endogenous in cells; host or cells: KBtax cells (paclitaxel-selected subline of human KB)
Description: KBtax cells (2.5×10^5/test) were collected and held on ice for 1 h in cold medium with […] rhodamine. Then, the cells were resuspended in medium warmed to 37° C. with one of the indicated compounds and incubated for 1 h in a water bath at the same temperature for efflux determination. The fluorescence intensities were quantified by FACSCanto flow cytometry.

[21] = Body mass and serum biochemical markers, H1975 xenograft mice; assay type: in vivo, BALB/c nude mice; conditions: 4 or 8 mg/kg i.p. three times a week, end of experiment
Description: as §2

[22] = Body mass and serum biochemical markers, KBtax xenograft mice; assay type: in vivo, BALB/c nude mice
Description: The body mass of each animal and tumor volumes were measured before each drug delivery. Tumor volume was calculated as 0.5W^2L (with W being the width of the smaller diameter and L being the length of the larger diameter). The animal experiment was carried out in accordance with the procedures and guidelines of the Institutional Animal Care and Use Committee, Institute of Biomedical Sciences, Academia Sinica.

[23] = Body mass, MDA-MB-231 xenograft mice; assay type: in vivo, BALB/c nude mice; conditions: 4 or 8 mg/kg i.p. three times a week, 35 days
Description: as §2

[24] = test system: P-gp expression; assay: P-gp expression immunoblotting in KBtax cells; assay type: cell-based, human; conditions: 24 h
Description: The cells were harvested and lysed in RIPA buffer (20 mM Tris-HCl, 150 mM NaCl, 1 mM Na2EDTA, 1% sodium deoxycholate, 1% IGEPAL CA-630, 0.1% SDS, pH 7.5) with protease inhibitors (Roche). Protein concentration was measured by the BCA assay. For immunoprecipitation, protein extracts were incubated with mag-beads-AS1712 or mag-beads-control at 4° C. overnight and then washed five times with PBS before immunoblotting. For immunoblotting, equivalent amounts of denatured proteins were separated through SDS-PAGE gels and then transferred to PVDF membranes (Millipore), which were each blocked with 5% nonfat milk in PBS and 0.1% Tween-20 (Sigma Aldrich) for 1 h. Then each membrane was incubated with a primary antibody overnight at 4° C., followed by incubation with a horseradish peroxidase conjugated secondary antibody for 1 h at room temperature. The signal was visualized by enhanced chemiluminescence detection, and images were acquired using a BioSpectrum Imaging System (UVP).

[25] = biological target: colchicine site of tubulin (Sus scrofa, UniProt P02554); assay: Colchicine competition assay; assay type: binding; conditions: 37° C. for 1 h
Description: Tubulin ([…]) and colchicine ([…]) were incubated with the various concentrations of AS1712, nocodazole, or vincristine in 80 mM PIPES, 2 mM MgCl2, 0.5 mM EGTA, pH 6.9 at 37° C. for 1 h. Fluorescence intensities (excitation and emission wavelengths at 365 and 435 nm, respectively) were recorded using an Infinite M200 plate reader (Tecan). Fluorescence values were normalized to the DMSO control.

[26] = biological target: tubulin (Sus scrofa, UniProt P02554); assay: Limited proteolysis assay; assay type: binding; conditions: 100 μM, 30 min at 30° C.
Description: Tubulin (1 mg/mL) was incubated individually with a test compound for 30 min at 30° C. in 0.1 M morpholino ethanesulfonic acid, 1 mM MgCl2, 1 mM EGTA, pH 6.9, and then 25 μg/mL trypsin (TPCK-treated, Sigma Aldrich; 1:40 [w/w] trypsin/tubulin) was added to the solution for a 10-min digestion at 4° C. Samples were electrophoresed through a 15% SDS-PAGE gel and stained with Coomassie brilliant blue R250. The images were scanned and quantified using a BioSpectrum Imaging System (UVP).

[27] = 4 mg/kg intraperitoneally three times a week
[28] = 8 mg/kg intraperitoneally three times a week
[29] = end of experiment, paclitaxel 15 mg/kg, RJ-LC-15-8 8 mg/kg, mean ± SEM

Structure (SMILES): CCOC(=O)c1ccc2[nH]c(-c3cccc(F)c3)cc(=O)c2c1 [RJ-LC-15-8, Ethyl 2-(3-fluorophenyl)-4-oxo-1,4-dihydroquinoline-6-carboxylate]
- IC50 ([1]; NCI-H1975, 72 h, H1975 cells, 72 h, MTS): 24 nM
- IC50 ([1]; NCI-H1975, Table 8, cell line not given, values match H1975): 24 ± 1 nM
- IC50 [2]: 21 ± 1.14 nM
- IC50 [3]: 34 ± 4.71 nM
- IC50 [4]: 35 ± 1.45 nM
- IC50 [5]: 22 ± 0.61 nM
- IC50 [6]: 23 ± 1.27 nM
- IC50 [7]: 34 ± 0.39 nM
- IC50 [8]: 20 ± 1.71 nM
- IC50 [9]: > 10000 nM
- IC50 [10]: 30 ± 1.35 nM
- RF, resistance factor (IC50 in resistant cell line/IC50 in parent cell line) ([10]; KBtax vs KB): 0.88
- IC50 [11]: 35 ± 0.88 nM
- RF, resistance factor (IC50 in resistant cell line/IC50 in parent cell line) [11]: 1
- RF, resistance factor (IC50 in resistant cell line/IC50 in parent cell line) [12]: 0.8
- IC50 [12]: 16 ± 0.52 nM
- IC50 [13]: 39 ± 0.49 nM
- RF, resistance factor (IC50 in resistant cell line/IC50 in parent cell line) ([14]; HDQP1/TAX vs HDQP1): 1.02
- IC50 ([14]; Homo sapiens, HDQ-P1, Paclitaxel-resistant subline): 40 ± 3.26 nM
- IC50 [15]: 21 to 35 nM
- average tumor size [16, 27]: 1333±121.9 mm^3
- average tumor size [16, 28]: 972.5±52.3 mm^3
- average tumor size [17, 27]: 105±9.4 mm^3
- average tumor size [17, 28]: 73.6±8.2 mm^3
- TUNEL staining of the tumor tissues ([18]; 8 mg/kg, 21 days): induced apoptosis
- average tumor size ([18]; after 21 days, i.p. three times a week, paclitaxel 15 mg/kg, RJ-LC-15-8 8 mg/kg): 528.4±101.6 mm^3
- tubulin polymerization [19]: direct inhibition
- P-gp pump activity [20]: did not directly inhibit
- body mass [21]: not affected
- Body mass and serum biochemical markers for liver and kidney functions ([22]; 8 mg/kg, end of the experiment): not negatively affected
- ALT (IU/L) [22, 29]: 64 ± 10.8 IU/L
- AST(IU/L) [22, 29]: 120.7 ± 27.5 IU/L
- BUN [22, 29]: 18.2 ± 1 mg/dL
- Cre [22, 29]: 0.26 ± 0.04 mg/dL
- body mass [23]: did not affect
- P-gp expression [24]: did not affect

Structure (SMILES): COC(=O)Nc1nc2ccc(C(=O)c3cccs3)cc2[nH]1 [nocodazole]
- tubulin polymerization [19]: inhibit tubulin polymerization
- colchicine fluorescence [25]: decreased the colchicine fluorescence in a dose-dependent manner
- tryptic pattern after limited trypsin digestion [26]: produced an increased amount of βcol

Structure (SMILES): CC[C@]1(O)C[C@H]2CN(CCc3c([nH]c4ccccc34)[C@@](C(=O)OC)(c3cc4c(cc3OC)N(C=O)[C@H]3[C@@](O)(C(=O)OC)[C@H](OC(C)=O)[C@]5(CC)C=CCN6CC[C@]43[C@@H]65)C2)C1 [Vincristine, vincristine]
- IC50 [7]: 5 ± 0.31 nM
- IC50 [8]: 3 ± 0.04 nM
- IC50 [10]: 49 ± 2.96 nM
- IC50 [11]: 817 ± 47.4 nM
- RF, resistance factor (IC50 in resistant cell line/IC50 in parent cell line) [11]: 163
- RF, resistance factor (IC50 in resistant cell line/IC50 in parent cell line) [12]: 440
- IC50 [12]: 1320 ± 20.6 nM
- tubulin polymerization [19]: inhibit tubulin polymerization
- colchicine fluorescence [25]: did not
- tryptic pattern after limited trypsin digestion [26]: decreased the amount of the βcol, αN, and αC fragments
